According to PubChem BioAssay (NCI):
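Assay format: 96-well plates, 48-hour exposure. Abbreviation: GI50, concentration required for 50% inhibition of growth. Definition used: TGI = concentration required for complete inhibition of growth.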

Columns and labels:
Assay in all cases: inhibition of tumour cell growth, NCI panel, 48 h
[1] = test system: RPMI-8226 leukemia
[2] = test system: SW-620 colon
[3] = test system: SF-295 CNS
[4] = test system: SK-MEL-5 melanoma
[5] = test system: SK-MEL-2 melanoma
[6] = test system: 786-0 renal
[7] = test system: HL-60(TB) leukemia
[8] = test system: UO-31 renal
[9] = test system: NCI/ADR-RES ovarian
[10] = test system: SN12C renal
[11] = test system: NCI-H23 lung
[12] = test system: SK-MEL-28 melanoma
[13] = test system: SR leukemia
[14] = test system: MDA-MB-435
[15] = test system: ACHN renal
[16] = test system: UACC-62 melanoma
[17] = test system: NCI-H226 lung
[18] = test system: MOLT-4 leukemia
[19] = test system: SNB-75 CNS
[20] = test system: LOX IMVI melanoma
[21] = test system: A498 renal
[22] = test system: TK-10 renal
[23] = test system: M14 melanoma
[24] = test system: RXF 393 renal
[25] = test system: NCI-H522 lung
[26] = test system: U251 CNS
[27] = test system: HCT-15 colon
[28] = test system: HCT-116 colon
[29] = test system: PC-3 prostate
[30] = test system: CAKI-1 renal
[31] = test system: SF-539 CNS
[32] = test system: BT-549 breast
[33] = test system: MDA-MB-231 breast
[34] = test system: COLO 205 colon
[35] = test system: EKVX NSCLC
[36] = test system: OVCAR-4 ovarian
[37] = test system: CCRF-CEM leukemia
[38] = test system: K-562 leukemia
[39] = test system: IGROV1 ovarian
[40] = test system: MALME-3M melanoma
[41] = test system: MCF7 breast
[42] = test system: OVCAR-5 ovarian
[43] = test system: UACC-257 melanoma
[44] = test system: HCC-2998 colon
[45] = test system: T-47D breast
[46] = test system: SNB-19 CNS
[47] = test system: HT29 colon
[48] = test system: OVCAR-8 ovarian
[49] = test system: A549 NSCLC

Cc1nc2ccccc2c(/C=C/c2ccccc2)c1C(=O)/C=C/c1ccc(C(F)(F)F)cc1
GI50 [1]: 394 nM | TGI [1]: 3850 nM | GI50 [2]: 1020 nM | TGI [2]: 3490 nM | GI50 [3]: 1670 nM | TGI [3]: 3100 nM | GI50 [4]: 1730 nM | TGI [4]: 3130 nM | GI50 [5]: 1870 nM | TGI [5]: 3950 nM | GI50 [6]: 1220 nM | TGI [6]: 2710 nM | GI50 [7]: 1700 nM | TGI [7]: 5280 nM | GI50 [8]: 1070 nM | TGI [8]: 2260 nM | GI50 [9]: 2190 nM | TGI [9]: 7190 nM | GI50 [10]: 1730 nM | TGI [10]: 4160 nM | GI50 [11]: 1250 nM | TGI [11]: 3110 nM | GI50 [12]: 1740 nM | TGI [12]: 3270 nM | GI50 [13]: 380 nM | TGI [13]: > 100000 nM | GI50 [14]: 1860 nM | TGI [14]: 3550 nM | GI50 [15]: 1440 nM | TGI [15]: 2750 nM | GI50 [16]: 1480 nM | TGI [16]: 2930 nM | GI50 [17]: 1730 nM | TGI [17]: 3670 nM | GI50 [18]: 623 nM | TGI [18]: > 100000 nM | GI50 [19]: 1440 nM | TGI [19]: 2820 nM | GI50 [20]: 1090 nM | TGI [20]: 2340 nM | GI50 [21]: 1750 nM | TGI [21]: 3180 nM | GI50 [22]: 2350 nM | TGI [22]: 4040 nM | GI50 [23]: 1600 nM | TGI [23]: 3940 nM | GI50 [24]: 1410 nM | TGI [24]: 3100 nM | GI50 [25]: 1600 nM | TGI [25]: 6320 nM | GI50 [26]: 1400 nM | TGI [26]: 2950 nM | GI50 [27]: 721 nM | TGI [27]: 3280 nM | GI50 [28]: 226 nM | TGI [28]: 1160 nM | GI50 [29]: 1550 nM | TGI [29]: 5020 nM | GI50 [30]: 1140 nM | TGI [30]: 2440 nM | GI50 [31]: 1820 nM | TGI [31]: 3270 nM | GI50 [32]: 1250 nM | TGI [32]: 2890 nM | GI50 [33]: 1650 nM | TGI [33]: 3380 nM | GI50 [34]: 2130 nM | TGI [34]: 5400 nM | GI50 [35]: 1560 nM | TGI [35]: 3110 nM | GI50 [36]: 1650 nM | TGI [36]: 3200 nM | GI50 [37]: 381 nM | TGI [37]: > 100000 nM | GI50 [38]: 775 nM | TGI [38]: > 100000 nM | GI50 [39]: 414 nM | TGI [39]: 2020 nM | GI50 [40]: 1710 nM | TGI [40]: 3180 nM | GI50 [41]: 631 nM | TGI [41]: 2660 nM | GI50 [42]: 1930 nM | TGI [42]: 4450 nM | GI50 [43]: 1960 nM | TGI [43]: 4250 nM | GI50 [44]: 1400 nM | TGI [44]: 2900 nM | GI50 [45]: 1180 nM | TGI [45]: 3880 nM | GI50 [46]: 1650 nM | TGI [46]: 3050 nM | GI50 [47]: 632 nM | TGI [47]: 4460 nM | GI50 [48]: 1780 nM | TGI [48]: 7980 nM | GI50 [49]: 2030 nM | TGI [49]: 4840 nM

Oc1c(Cl)c(Cl)c(Cl)c(Cl)c1Cl
TGI [7]: 36900 nM | TGI [17]: 56900 nM | TGI [37]: 48300 nM
